Experimental findings from ChEMBL document CHEMBL1201862, “PubChem BioAssay data set” (2004) are described below.

Test systems include ACHN; TK-10; CCRF-CEM; SW-620; UO-31; DU-145; NCI-H522; MDA-N; K562; SK-MEL-28; BT-549; NCI/ADR-RES; HCC 2998; SF-539; SF-268; Malme-3M; SK-MEL-5; A549; SK-OV-3; HOP-92.
What all share (test): NCI tumour cell line growth inhibition, 48 h

Molecules are shown by their SMILES. Values joined by “and” are separate entries in the source; they are usually repeats but may differ in a detail not shown here. Equal entries are not always repeated.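 Each compound was tested at five concentrations against cells in 96-well plates for 48 hours. GI50 is the concentration that inhibits growth by half.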 Active and inactive are the calls of the source. Cut-off read from the data, not from the text of the source: active = GI50 up to about 1.1 µM and inactive = higher.

Take `O=c1c(-c2ccc(O)cc2)coc2cc(OC3OC(CO)C(O)C(O)C3O)cc(O)c12` (configuration not stated): the GI50 in the test with ACHN was 54.5 µM (inactive); in the test with TK-10 it was 33 µM (inactive); in the test with CCRF-CEM, 38.8 µM (inactive); with SW-620, > 10 µM (inactive); in the test on UO-31, 22.2 µM (inactive); in the test on DU-145, > 100 µM (inactive). Besides, the GI50 in the test on NCI-H522 is 45.7 µM (inactive); with MDA-N it was > 100 µM (inactive); in the test on K562, > 10 µM (inactive); in the test on SK-MEL-28 it was > 10 µM (inactive); in the test on BT-549 it was 58.5 µM (inactive); with NCI/ADR-RES, > 10 µM (inactive). Moreover, the GI50 in the test with HCC 2998 was > 100 µM (inactive); in the test with SF-539, 31.1 µM (inactive); in the test on SF-268 it was 41.7 µM (inactive); in the test on Malme-3M, > 10 µM (inactive); in the test with SK-MEL-5, > 10 µM (inactive); in the test on A549, 60.3 µM (inactive). Also, in the test with SK-OV-3, the GI50 was > 10 µM (inactive).

For the molecule `Cc1nc2ccccc2c(=O)n1NC(=S)Nc1ccc(Cl)cc1[N+](=O)[O-]`, the GI50 was > 100 µM (inactive) with ACHN; > 100 µM (inactive) in the test on TK-10; > 100 µM (inactive) in the test on CCRF-CEM; > 100 µM (inactive) in the test on SW-620; > 55.5 µM (inactive) in the test on UO-31; > 100 µM (inactive) with DU-145. The GI50 in the test with NCI-H522, in the test on MDA-N, in the test on K562, in the test on SK-MEL-28, in the test on BT-549 and in the test on NCI/ADR-RES was > 100 µM (inactive) each time. In addition, the GI50 in the test on SF-539, in the test on SF-268, in the test with Malme-3M, with SK-MEL-5, in the test on A549 and in the test with SK-OV-3 was > 100 µM (inactive) each time. Moreover, the GI50 in the test on HOP-92 was > 100 µM (inactive).

In the case of `CC(=O)OCC(OC(C)=O)C(OC(C)=O)C(/C=N\Nc1nc2ccccc2c(=O)[nH]1)OC(C)=O` (configuration not stated), the GI50 in the test with ACHN, in the test on TK-10, in the test on CCRF-CEM, in the test with SW-620, in the test with UO-31 and in the test on DU-145 was > 100 µM (inactive) throughout. Besides, the GI50 with MDA-N was > 100 µM (inactive); in the test with K562 it was > 100 µM (inactive); with SK-MEL-28, > 100 µM (inactive); with BT-549, > 100 µM (inactive); in the test with NCI/ADR-RES, 24.9 µM (inactive) and 34.5 µM (inactive); in the test on SF-539 it was > 100 µM (inactive). Besides, the GI50 in the test on SF-268, in the test on SK-MEL-5, in the test on A549, with SK-OV-3 and with HOP-92 was > 100 µM (inactive) in each case.

Turning to `CCOC(=O)CN1C(=O)C(=O)N(c2ccc(OC)c3ccccc23)C1=O`, the GI50 in the test on ACHN is > 100 µM (inactive); in the test with TK-10 it was > 100 µM (inactive); with CCRF-CEM it was > 100 µM (inactive); in the test with SW-620, > 100 µM (inactive); in the test with UO-31, 34.6 µM (inactive); in the test on DU-145 it was > 100 µM (inactive). The GI50 in the test on NCI-H522, in the test on MDA-N, with K562, with SK-MEL-28, in the test with BT-549 and in the test with NCI/ADR-RES was > 100 µM (inactive) throughout. In addition, the GI50 with HCC 2998, in the test on SF-539, with SF-268, in the test with Malme-3M, in the test with SK-MEL-5 and in the test with A549 was > 100 µM (inactive) in each case. The GI50 in the test with SK-OV-3 was > 100 µM (inactive).

With `O=C1CC[C@@]2(O)[C@H]3Cc4ccc(-c5cccc(O)c5)c5c4[C@@]2(CCN3CC2CC2)[C@H]1O5`, the GI50 in the test on ACHN was 25.4 µM (inactive); with TK-10 it was 1.01 µM (active); in the test on CCRF-CEM, < 0.01 µM (active); with SW-620, > 35.1 µM (inactive); in the test on UO-31, 14.1 µM (inactive); with DU-145, 22.6 µM (inactive). The GI50 with NCI-H522 was 16.1 µM (inactive); in the test with MDA-N, 14.6 µM (inactive); with K562 it was 21.9 µM (inactive); in the test on SK-MEL-28, 32.2 µM (inactive); in the test on BT-549, 21.6 µM (inactive); in the test with NCI/ADR-RES, 15.8 µM (inactive). Besides, the GI50 in the test with HCC 2998 is 16.4 µM (inactive); in the test with SF-539, 18.9 µM (inactive); in the test with SF-268, 22.3 µM (inactive); in the test with SK-MEL-5 it was 16.3 µM (inactive); with A549, 9.55 µM (inactive); with HOP-92, 25.7 µM (inactive).

As for `CCN1c2nc3ccccc3nc2N(CC)c2nc3ccccc3nc21`, the GI50 in the test with ACHN was 39.1 µM (inactive); in the test on TK-10, 52.6 µM (inactive); in the test with CCRF-CEM it was 48.3 µM (inactive); with SW-620, 30.7 µM (inactive); in the test with UO-31 it was 96.6 µM (inactive); with DU-145 it was 65.8 µM (inactive). Besides, the GI50 was 49.5 µM (inactive) with NCI-H522; 57.8 µM (inactive) in the test on MDA-N; 34 µM (inactive) in the test on K562; 46.5 µM (inactive) in the test on SK-MEL-28; 80.5 µM (inactive) in the test with BT-549; 63.8 µM (inactive) in the test on NCI/ADR-RES. Further, the GI50 was 50.5 µM (inactive) with HCC 2998; 25.8 µM (inactive) in the test with SF-539; 32.1 µM (inactive) with SF-268; 70.8 µM (inactive) in the test on Malme-3M; 41.2 µM (inactive) with SK-MEL-5; 88.7 µM (inactive) with A549. For the same molecule, the GI50 in the test with SK-OV-3 was > 100 µM (inactive).

For `COc1cccc(-c2ccc3c4c2O[C@H]2C(=O)CC[C@@]5(O)[C@@H](C3)N(CC3CC3)CC[C@]425)c1`, the GI50 with ACHN is 18.1 µM (inactive); in the test with TK-10, 17.3 µM (inactive); with CCRF-CEM, 7.29 µM (inactive); with SW-620, 12.2 µM (inactive); in the test on UO-31, 14.5 µM (inactive); in the test on DU-145, 24.4 µM (inactive). Besides, the GI50 in the test on NCI-H522 was 17.7 µM (inactive); in the test with MDA-N it was 18.9 µM (inactive); in the test on K562, 13.5 µM (inactive); in the test on SK-MEL-28, 27.4 µM (inactive); in the test with BT-549, 18.4 µM (inactive); with NCI/ADR-RES, 19.4 µM (inactive). Moreover, the GI50 in the test with SF-539 is 14.7 µM (inactive); with SF-268, 20.8 µM (inactive); in the test with Malme-3M it was 20.9 µM (inactive); in the test on SK-MEL-5 it was 14.8 µM (inactive); in the test with A549 it was 18.2 µM (inactive); in the test with SK-OV-3, 18.7 µM (inactive). Besides, the GI50 in the test on HOP-92 was 15.3 µM (inactive).

On to `CCOC(=O)NN(C(=O)OCC)c1c(C)cc(C)cc1C`, for which the GI50 with TK-10 was > 100 µM (inactive); with CCRF-CEM, > 100 µM (inactive); in the test with SW-620 it was > 100 µM (inactive); in the test on UO-31 it was 98.9 µM (inactive); with DU-145 it was > 100 µM (inactive); with NCI-H522 it was > 100 µM (inactive). In addition, the GI50 in the test on MDA-N, in the test on K562, in the test with SK-MEL-28, with BT-549, in the test with NCI/ADR-RES and with HCC 2998 was > 100 µM (inactive) throughout. The GI50 with SF-539, in the test on SF-268, in the test on Malme-3M, in the test with SK-MEL-5, in the test with A549 and in the test with SK-OV-3 was > 100 µM (inactive) each time.

On to `C[N+](C)([O-])CCC=C1c2ccccc2CCc2ccccc21`, for which the GI50 in the test on ACHN is 35 µM (inactive); with TK-10 it was 53.2 µM (inactive); in the test with CCRF-CEM, 18.6 µM (inactive); in the test with SW-620, 21.8 µM (inactive); in the test with DU-145, 26 µM (inactive); in the test on NCI-H522, 16.6 µM (inactive). Also, the GI50 in the test with MDA-N is 19.5 µM (inactive); in the test with K562 it was 19.2 µM (inactive); with SK-MEL-28 it was 33.5 µM (inactive); in the test with BT-549, 41.9 µM (inactive); in the test on NCI/ADR-RES, 22 µM (inactive); in the test with SF-539, 36.9 µM (inactive). In addition, the GI50 is 21.5 µM (inactive) in the test with SF-268; 18.5 µM (inactive) in the test with Malme-3M; 17.7 µM (inactive) in the test with SK-MEL-5; 28.1 µM (inactive) in the test with A549; 37.8 µM (inactive) with SK-OV-3; 25.5 µM (inactive) in the test with HOP-92.

Regarding `CCOC(=O)[C@@H]1[C@@H](c2ccccc2)N(C)O[C@@]1(c1ccccc1)C(F)(F)F`, the GI50 is 44.8 µM (inactive) in the test on ACHN; > 100 µM (inactive) with TK-10; 20.1 µM (inactive) in the test with CCRF-CEM; 43.7 µM (inactive) with SW-620; > 100 µM (inactive) in the test with UO-31; > 100 µM (inactive) in the test with DU-145. In addition, the GI50 was 39.9 µM (inactive) in the test with NCI-H522; 52.8 µM (inactive) in the test on MDA-N; > 10 µM (inactive) in the test on K562; 85.9 µM (inactive) with SK-MEL-28; > 100 µM (inactive) with BT-549; > 100 µM (inactive) in the test on NCI/ADR-RES. For the same molecule, the GI50 is > 100 µM (inactive) in the test on SF-268; 44.2 µM (inactive) in the test with Malme-3M; 27 µM (inactive) in the test with SK-MEL-5; 47.3 µM (inactive) in the test on A549; 43.7 µM (inactive) with SK-OV-3; > 100 µM (inactive) with HOP-92.

With `CC(C)(C)CNCCCNc1ccc(Cl)cc1`, the GI50 in the test on ACHN is > 100 µM (inactive); in the test with TK-10, 19.7 µM (inactive); in the test on CCRF-CEM, 35.8 µM (inactive); with SW-620, > 100 µM (inactive); with UO-31, 61.2 µM (inactive); in the test on DU-145, > 100 µM (inactive). The GI50 in the test with NCI-H522 is 24.1 µM (inactive); with MDA-N, 46 µM (inactive); with K562, < 0.01 µM (active); in the test on SK-MEL-28, 20.9 µM (inactive); with BT-549, 70.6 µM (inactive); in the test with NCI/ADR-RES it was > 100 µM (inactive). Further, the GI50 was 92.9 µM (inactive) in the test with SF-539; 65.6 µM (inactive) in the test on SF-268; 22 µM (inactive) in the test on Malme-3M; > 100 µM (inactive) in the test with A549; > 100 µM (inactive) in the test on SK-OV-3; 13.6 µM (inactive) in the test with HOP-92.
